Patent US6025378A, “Bicyclic heterocyclic compounds” (Bayer Aktiengesellschaft, priority 1995, dated 2000)
Read-outs that look alike come from different tables or passages of the source.

Tested on: ApoB-100-associated lipoproteins released from HepG2 cells
Test: Inhibition of the release of ApoB-100-associated lipoproteins from cultured hepatic HepG2 cells (immunoassay for human LDL)
Type: cell-based
Conditions: culture supernatant, absorption at 450 nm inhibited by 50% vs solvent control, read-out: Apo B IC50
Description: 1. Inhibition of the Release of ApoB-100-associated Lipoproteins
The test for detection of the inhibition of the release of ApoB-100-associated lipoproteins from hepatic cells was carried out in vitro with cultured hepatic cells, preferably with cells of the human line HepG2. These cells are cultured under standard conditions in medium for culture of eukaryotic cells, preferably in RPMI 1640 with 10% foetal calf serum. HepG2 cells synthesize and secrete into the culture supernatant ApoB-100-associated lipoprotein particles, which are in principle built up similarly to the VLDL and LDL particles which are to be found in plasma.
These particles can be detected with an immunoassay for human LDL. This immunoassay is carried out with antibodies which have been induced against human LDL in rabbits under standard conditions. The anti-LDL antibodies (rab-anti-LDL-Ab) were purified by affinity chromatography on an immunosorbent with human LDL. These purified rab-anti-LDL-Ab are adsorbed onto the surface of plastic. This adsorption is expediently carried out on the plastic surface of microtiter plates with 96 wells, preferably on MaxiSorp plates. If ApoB-100-associated particles are present in the supernatant of Hep-G2 cells, these can bond to the insolubilized rab-anti-LDL-Ab, and an immune complex bonded to the plastic surface is formed. Non-bonded proteins are removed by washing The immune complex on the plastic source is detected with monoclonal antibodies, which have been induced against human LDL and purified under standard conditions. These antibodies were conjugated with the enzyme peroxidase. Peroxidase converts the colourless substrate TMB into a coloured product in the presence of H2 O2. After acidification of the reaction mixture with H2 SO4, the specific absorption of light is determined at 450 nm, this being a measure of the amount of ApoB-100-associated particles wich had been secreted by the HepG2 cells into the culture supernatant.
The IC50 value indicates the concentration of substance at which the absorption of light is inhibited by 50% compared with the control (solvent control without the substance).

[1] = Homo sapiens, HepG2, HepG2 cells

| SMILES | IC50 [1] | IC50 (HepG2 cells) |
| --- | --- | --- |
| CCc1nc2ccccc2c(=O)n1Cc1ccc(C(C(=O)N[C@@H](CO)c2ccccc2)C2CCCC2)cc1 (some centres unmarked) [Example 67] | – | 27.4 nM |
| O=C(N[C@@H](CO)c1ccccc1)C(c1ccc(Cn2ncc3ccccc3c2=O)cc1)C1CCCCCC1 (some centres unmarked) [Example 70] | 58.8 nM | – |
| CCCCc1nn(Cc2ccc(C(C(=O)N[C@@H](CO)c3ccccc3)C3CCCC3)cc2)c(=O)c2ccccc12 (some centres unmarked) [Example 73] | 29.4 nM | – |
| O=C(N[C@@H](CO)c1ccccc1)C(c1ccc(Cn2nc(-c3ccc(Cl)cc3)c3ccccc3c2=O)cc1)C1CCCC1 (some centres unmarked) [Example 76] | – | 37.2 nM |

Other lines, results leading:

| IC50 [1] | IC50 (HepG2 cells) | SMILES |
| --- | --- | --- |
| 5.9 nM | – | O=C(N[C@@H](CO)c1ccccc1)C(c1ccc(CN2C(=O)c3ccncc3C2=O)cc1)C1CCCCCC1 (some centres unmarked) [Example 63] |
| – | 70.6 nM | CCc1nc2ccccc2c(=O)n1Cc1ccc(C(C(=O)N[C@@H](CO)c2ccccc2)C2CCCC2)cc1 (some centres unmarked) [Example 68] |
| – | 14.9 nM | O=C(N[C@@H](CO)c1ccccc1)C(c1ccc(Cn2nc(-c3ccc(Cl)cc3)c3ccccc3c2=O)cc1)C1CCCC1 (some centres unmarked) [Example 77] |
| – | 279 nM | O=C(N[C@@H](CO)c1ccccc1)C(c1ccc(Cn2nc(-c3ccc(Cl)cc3)c3ccccc3c2=O)cc1)C1CCCC1 (some centres unmarked) [Example 78] |
